These results are taken from patent publication US12391671B2, “Allosteric EGFR inhibitors and methods of use thereof” (Dana-Farber Cancer Institute, Inc., priority 2019, dated 2025).

One experiment deals with EGFR L858R/T790M (Homo sapiens (Human), UniProt P00533, L858R/T790M). As to the kind of experiment: HTRF-based EGFR biochemical assay (L858R/T790M). The conditions noted are these: 100 μM ATP, enzyme 0.02 nM. In short, it runs like this:
(§1)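 Mutant EGFR (L858R 0.1 nM, L858R/T790M 0.02 nM) preincubated 30 min with compounds at room temperature in HEPES pH 7.0 buffer with Mg2+/Mn2+, then reacted 20 min with 1 μM biotinylated tyrosine kinase peptide and 100 μM ATP. Phosphorylation read by HTRF (Eu-cryptate anti-phosphotyrosine/streptavidin-XL665, 665/620 nm) after EDTA quench.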
(TR-FRET usually uses a lanthanide donor and a delayed reading to cut background.)

Experiment [1] has as its system EGFR mutant L858R/T790M Ba/F3 cells. The experiment can be described thus: Ba/F3 cell proliferation model (Cell Titer Glo), EGFR L858R/T790M. The experiment is classed as cell-based, murine. The settings on record: 72 hours. In short, it runs like this:
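Retrovirally transduced Ba/F3 cells exposed 72 h to compound alone or with 1 μg/mL cetuximab, triplicate points, repeated at least three times. Viability by Cell Titer Glo luminescence (ATP); curves fitted by non-linear sigmoidal dose-response regression.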

The target in the next experiment is EGFR L858R (Homo sapiens (Human), UniProt P00533, L858R). The experiment can be described thus: HTRF-based EGFR biochemical assay (L858R). The conditions noted are these: 100 μM ATP, enzyme 0.1 nM. In short, it runs like this:
as §1

In experiment [2] the test system is EGFR mutant L858R Ba/F3 cells. The experiment can be described thus: Ba/F3 cell proliferation model (Cell Titer Glo), EGFR L858R. The experiment is classed as cell-based, murine. The settings on record: 72 hours. An excerpt:
Example 26: Ba/F3 Cell Proliferation Models
The EGFR mutant L858R and L858R/T790M Ba/F3 cells have been previously described (Zhou, W., et al. Nature 462, 2009, 1070-1074). All cell lines were maintained in RPM 1640 (Cellgro; Mediatech Inc., Herndon. CA) supplemented with 10% FBS, 100 units/mL penicillin, 100 units/mL streptomycin. The EGFR I941R mutation was introduced via site directed mutagenesis using the Quick Change Site-Directed Mutagenesis kit (Stratagene; La Jolla, CA) according to the manufacturer's instructions. All constructs were confirmed by DNA sequencing. The constructs were shuttled into the retroviral vector JP1540 using the Cre-recombination system (Agilent Technologies, Santa Clara, CA). Ba/F3 cells were then infected with retrovirus per standard protocols, as described previously (Zhou, et al, Nature 2009). Stable clones were obtained by selection in puromycin (2 μg/ml).
Growth and inhibition of growth was assessed by the Cell Titer Glo® assay (Promega, Madison, WI) and was performed according to the manufacturer's instructions. The Cell Titer Glo® assay is a luminescence-based method used to determine the number of viable cells based on quantitation of the ATP present, which is directly proportional to the amount of metabolically active cells present. Ba/F3 cells of different EGFR genotypes were exposed to compounds as a single agent or in combination with 1 μg/mL cetuximab for 72 hours and the number of cells used per experiment was determined empirically as has been previously established (Zhou, et al., Nature 2009). All experimental points were set up in triplicates in 384-well plates and all experiments were repeated at least three times. […] The curves were fitted using a non-linear regression model with a sigmoidal dose response.
Background: ATP-based viability assays read luminescence as a measure of living cells.

[3] abbreviates: Mus musculus, BaF3, single agent, read-out: Cell IC50 BaF3 EGFR L858R/T790M.
The mark [4] stands for this setting: Mus musculus, BaF3, single agent, read-out: Cell IC50 BaF3 EGFR L858R.
The mark [5] stands for this setting: in combination with 1 μg/mL cetuximab, read-out: Cell IC50 BaF3 EGFR L858R/T790M (+cetux.).
Setting [6] is: in combination with 1 μg/mL cetuximab, read-out: Cell IC50 BaF3 EGFR L858R (+cetux.).

Structures can show the parent of a compound that is named as a salt. Where two headings read alike, the source gives them in different places. A value given as a limit tells only on which side of the number the result lay.

EGFR L858R, sequence (P00533 25-1210 L858R): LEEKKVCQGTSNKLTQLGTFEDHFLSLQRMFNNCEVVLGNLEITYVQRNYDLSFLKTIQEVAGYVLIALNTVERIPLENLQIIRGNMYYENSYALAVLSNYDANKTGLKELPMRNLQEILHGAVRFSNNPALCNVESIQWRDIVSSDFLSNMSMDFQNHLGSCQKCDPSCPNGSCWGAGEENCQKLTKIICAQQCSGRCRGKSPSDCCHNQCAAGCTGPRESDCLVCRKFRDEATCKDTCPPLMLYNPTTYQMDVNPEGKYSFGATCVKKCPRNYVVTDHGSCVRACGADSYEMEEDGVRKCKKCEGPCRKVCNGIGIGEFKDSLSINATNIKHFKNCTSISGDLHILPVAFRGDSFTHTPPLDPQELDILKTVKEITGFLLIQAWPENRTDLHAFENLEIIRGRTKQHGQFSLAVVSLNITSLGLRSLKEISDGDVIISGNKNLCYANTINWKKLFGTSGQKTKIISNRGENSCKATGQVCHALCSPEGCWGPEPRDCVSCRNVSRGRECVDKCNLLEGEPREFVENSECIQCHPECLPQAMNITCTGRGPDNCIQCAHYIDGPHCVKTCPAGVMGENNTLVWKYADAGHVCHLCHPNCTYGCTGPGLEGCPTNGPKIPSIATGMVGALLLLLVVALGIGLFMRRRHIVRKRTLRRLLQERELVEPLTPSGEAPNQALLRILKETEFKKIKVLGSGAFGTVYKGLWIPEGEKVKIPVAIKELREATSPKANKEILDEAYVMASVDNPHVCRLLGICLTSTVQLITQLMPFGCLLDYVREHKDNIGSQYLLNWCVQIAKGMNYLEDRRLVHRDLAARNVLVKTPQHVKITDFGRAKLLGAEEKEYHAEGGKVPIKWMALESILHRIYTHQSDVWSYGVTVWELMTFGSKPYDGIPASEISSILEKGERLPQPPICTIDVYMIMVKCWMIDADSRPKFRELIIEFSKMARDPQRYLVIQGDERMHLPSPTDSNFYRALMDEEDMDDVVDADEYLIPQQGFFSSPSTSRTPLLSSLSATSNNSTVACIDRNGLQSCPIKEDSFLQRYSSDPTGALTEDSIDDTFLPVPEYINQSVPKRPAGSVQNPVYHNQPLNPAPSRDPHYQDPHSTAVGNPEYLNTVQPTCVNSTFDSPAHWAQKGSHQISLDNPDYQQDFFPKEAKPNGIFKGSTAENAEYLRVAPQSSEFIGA
EGFR L858R/T790M, sequence (P00533 25-1210 T790M/L858R): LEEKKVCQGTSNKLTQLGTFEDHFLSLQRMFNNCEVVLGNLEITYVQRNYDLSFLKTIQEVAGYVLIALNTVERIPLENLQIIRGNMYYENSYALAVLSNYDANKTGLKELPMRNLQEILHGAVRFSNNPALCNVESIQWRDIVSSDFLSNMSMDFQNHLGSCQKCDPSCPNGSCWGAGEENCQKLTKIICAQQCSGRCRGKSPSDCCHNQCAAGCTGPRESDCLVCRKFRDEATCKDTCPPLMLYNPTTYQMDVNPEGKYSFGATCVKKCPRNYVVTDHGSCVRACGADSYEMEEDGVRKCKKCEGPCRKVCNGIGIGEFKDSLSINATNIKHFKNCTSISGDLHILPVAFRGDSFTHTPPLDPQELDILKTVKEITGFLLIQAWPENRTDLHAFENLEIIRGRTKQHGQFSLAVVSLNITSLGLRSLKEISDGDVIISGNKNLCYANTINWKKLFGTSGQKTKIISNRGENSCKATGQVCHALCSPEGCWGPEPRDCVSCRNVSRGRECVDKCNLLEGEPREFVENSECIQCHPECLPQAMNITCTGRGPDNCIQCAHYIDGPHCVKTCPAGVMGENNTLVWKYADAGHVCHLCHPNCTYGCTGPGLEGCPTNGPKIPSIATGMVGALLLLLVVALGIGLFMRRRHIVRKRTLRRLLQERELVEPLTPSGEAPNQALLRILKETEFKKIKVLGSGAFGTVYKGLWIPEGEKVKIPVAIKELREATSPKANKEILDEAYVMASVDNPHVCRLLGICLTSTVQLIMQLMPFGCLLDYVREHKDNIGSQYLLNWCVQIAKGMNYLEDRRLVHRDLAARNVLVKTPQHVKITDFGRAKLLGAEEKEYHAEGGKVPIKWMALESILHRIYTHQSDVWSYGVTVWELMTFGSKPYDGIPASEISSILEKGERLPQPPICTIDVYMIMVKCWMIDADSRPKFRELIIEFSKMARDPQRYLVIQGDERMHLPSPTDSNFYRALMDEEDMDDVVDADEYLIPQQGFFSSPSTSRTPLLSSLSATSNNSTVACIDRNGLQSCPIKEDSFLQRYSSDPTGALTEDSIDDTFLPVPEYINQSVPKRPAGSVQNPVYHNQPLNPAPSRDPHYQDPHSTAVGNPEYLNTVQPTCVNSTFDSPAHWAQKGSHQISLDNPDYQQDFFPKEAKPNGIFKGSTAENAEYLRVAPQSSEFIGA

In the case of `Cc1c[nH]c(C(c2cccc(F)c2)N2Cc3ccc(-c4ccc(C5CCN(C)CC5)cc4)cc3C2=O)n1` (stereo not shown) [Compound 086, 2-[(3-fluorophenyl)-(4-methyl-1H-imidazol-2-yl)methyl]-6-[4-(1-methyl-4-piperidyl)phenyl]isoindolin-1-one], the IC50 was 25 nM at EGFR L858R/T790M, 3220 nM in experiment [1] (setting [3]), greater than 100 nM at EGFR L858R and 3640 nM in experiment [2] (setting [4]).

As to `CN1CCC(c2ccc(-c3ccc4ncn(C(c5nc6ccccc6[nH]5)c5cc(F)ccc5O)c(=O)c4c3F)cc2)CC1` (stereo not shown) [Compound 004, 3-((1H-Benzo[d]imidazol-2-yl)(5-fluoro-2-hydroxyphenyl)methyl)-5-fluoro-6-(4-(1-methylpiperidin-4-yl)phenyl)quinazolin-4(3H)-one 2,2,2-trifluoroacetate], the IC50 is 0.4 nM at EGFR L858R/T790M; 90 nM in experiment [1] (setting [3]); 10 nM in experiment [1] (setting [5]); 1 nM against EGFR L858R; 240 nM in experiment [2] (setting [4]); 30 nM in experiment [2] (setting [6]).

`CN1CCC(c2ccc(-c3ccc4c(c3F)C(=O)N(C(c3nc5ccccc5[nH]3)c3cc(F)ccc3O)C4)cc2F)CC1` (stereo not shown) [Compound 080, 2-[1H-benzimidazol-2-yl-(5-fluoro-2-hydroxy-phenyl)methyl]-7-fluoro-6-[3-fluoro-4-(1-methyl-4-piperidyl)phenyl]isoindolin-1-one; dihydrochloride]: the IC50 on EGFR L858R/T790M came out at 0.6 nM; in experiment [1] (setting [3]) it was 210 nM; in experiment [1] (setting [5]), 10 nM; against EGFR L858R, 3 nM; in experiment [2] (setting [4]), 500 nM.

In the case of `CN1CCC(c2ccc(-c3ccc4c(c3)C(=O)N(C(c3nc5cccnc5[nH]3)c3cc(F)ccc3O)C4)cc2)CC1` (stereo not shown) [Compound 014, 2-[(5-Fluoro-2-hydroxy-phenyl)-(3H-imidazo[4,5-b]pyridin-2-yl)methyl]-6-[4-(1-methyl-4-piperidyl)phenyl]isoindolin-1-one; hydrochloride], the IC50 came out at 0.3 nM against EGFR L858R/T790M; 710 nM in experiment [1] (setting [3]); 10 nM in experiment [1] (setting [5]); 2 nM on EGFR L858R; 810 nM in experiment [2] (setting [4]); 60 nM in experiment [2] (setting [6]).

For the compound `CN1CCC(c2ccc(-c3ccc4c(c3)C(=S)N(C(c3nc5ccccc5[nH]3)c3cc(F)ccc3O)C4)cc2)CC1` (stereo not shown) [Compound 078, 2-[1H-benzimidazol-2-yl-(5-fluoro-2-hydroxy-phenyl)methyl]-6-[4-(1-methyl-4-piperidyl)phenyl]isoindoline-1-thione;dihydrochloride], the IC50 at EGFR L858R/T790M was found to be 1 nM; in experiment [1] (setting [3]), 310 nM; in experiment [1] (setting [5]), 20 nM; against EGFR L858R, 3 nM; in experiment [2] (setting [4]), 690 nM.

As to `CN1CCC2(c3ccc(-c4ccc5c(c4)C(=O)N(C(c4nc6ccccc6[nH]4)c4cc(F)ccc4O)C5)cc3)CC2C1` (stereo not shown) [Compound 079, 2-[1H-benzimidazol-2-yl-(5-fluoro-2-hydroxy-phenyl)methyl]-6-[4-(3-methyl-3-azabicyclo[4.1.0]heptan-6-yl)phenyl]isoindolin-1-one; dihydrochloride], the IC50 turned out to be 0.8 nM against EGFR L858R/T790M; 190 nM in experiment [1] (setting [3]); 7 nM in experiment [1] (setting [5]); 3 nM on EGFR L858R; 830 nM in experiment [2] (setting [4]).

Regarding `CN1CCC(c2ccc(-c3cc4ccn(C(c5nc6ccccc6[nH]5)c5cc(F)ccc5O)c(=O)c4cc3F)cc2)CC1` (stereo not shown) [Compound 073, 2-[1H-benzimidazol-2-yl-(5-fluoro-2-hydroxy-phenyl)methyl]-7-fluoro-6-[4-(1-methyl-4-piperidy)phenyl]-isoquinolin-1-one], the IC50 against EGFR L858R/T790M came out at 14 nM; in experiment [1] (setting [3]), 580 nM; in experiment [1] (setting [5]), 20 nM; on EGFR L858R it was 21 nM; in experiment [2] (setting [4]) it was 930 nM.

Consider `CN1CCC(c2ccc(-c3cc(F)c4c(=O)n(C(c5nc6ccccc6[nH]5)c5cc(F)ccc5O)ccc4c3)cc2)CC1` (stereo not shown) [Compound 070, 2-[1H-benzimidazol-2-yl-(5-fluoro-2-hydroxy-phenyl)methyl]-8-fluoro-6-[4-(1-methyl-4-piperidyl)phenyl]isoquinolin-1-one], for which the IC50 stood at 1 nM at EGFR L858R/T790M; 70 nM in experiment [1] (setting [3]); 5 nM in experiment [1] (setting [5]); 4 nM against EGFR L858R; 160 nM in experiment [2] (setting [4]).

For `CN1CCC(c2ccc(-c3ccc4ncn(C(c5nc6ccccc6[nH]5)c5cc(F)ccc5O)c(=O)c4c3)cc2)CC1` (stereo not shown) [Compound 006, 3-[1H-Benzimidazol-2-yl-(5-fluoro-2-hydroxy-phenyl)methyl]-6-[4-(1-methyl-4-piperidyl)-phenyl]quinazolin-4-one;hydrochloride], the IC50 against EGFR L858R/T790M turned out to be 0.5 nM; in experiment [1] (setting [3]), 280 nM; in experiment [1] (setting [5]), 5 nM; against EGFR L858R it was 2 nM; in experiment [2] (setting [4]) it was 1100 nM; in experiment [2] (setting [6]), 60 nM.

`Cc1c[nH]c(C(c2cc(F)ccc2O)N2Cc3ccc(-c4ccc(C5CCN(C)CC5)cc4)cc3C2=O)n1` (stereo not shown) [Compound 085, 2-[(5-Fluoro-2-hydroxy-phenyl)-(4-methyl-1H-imidazol-2-yl)methyl]-6-[4-(1-methyl-4-piperidyl)phenyl]isoindolin-1-one]: the IC50 on EGFR L858R/T790M turned out to be 28 nM; in experiment [1] (setting [3]), 1290 nM; in experiment [1] (setting [5]) it was 50 nM; on EGFR L858R, 13 nM; in experiment [2] (setting [4]), 780 nM.

Turning to `CN1CCC(c2ccc(-c3cc(F)c4c(=O)n([C@@H](c5nc6ccccc6[nH]5)c5cc(F)ccc5O)ccc4c3)cc2)CC1` (single isomer, unassigned) [Compound 065], the IC50 against EGFR L858R/T790M was found to be 0.5 nM; in experiment [1] (setting [3]), 30 nM; at EGFR L858R it was 2 nM; in experiment [2] (setting [4]), 130 nM.

Consider `CN1CCC(c2ccc(-c3ccc4ncn(C(c5nc6ccccc6[nH]5)c5cc(F)ccc5O)c(=O)c4c3C(F)(F)F)cc2)CC1` (stereo not shown) [Compound 076, 3-[1H-benzimidazol-2-yl-(5-fluoro-2-hydroxy-phenyl)methyl]-6-[4-(1-methyl-4-piperidyl)phenyl]-5-(trifluoromethyl)quinazolin-4-one; dihydrochloride], for which the IC50 at EGFR L858R/T790M was 2 nM; in experiment [1] (setting [3]), 140 nM; in experiment [1] (setting [5]), 30 nM; at EGFR L858R it was 2 nM; in experiment [2] (setting [4]) it was 90 nM.

In the case of `CN1CCC(c2ccc(-c3ccc4cn(C(c5nc6ccccc6[nH]5)c5cc(F)ccc5O)nc4c3)cc2)CC1` (stereo not shown) [Compound 100, 2-((1H-Benzo[d]imidazol-2-yl)(6-(4-(1-methylpiperidin-4-yl)phenyl)-2H-indazol-2-yl)methyl)-4-fluorophenol; trifluoroacetate], the IC50 against EGFR L858R/T790M was 4 nM; in experiment [1] (setting [3]), 530 nM; against EGFR L858R it was 14 nM; in experiment [2] (setting [4]) it was 2000 nM.

`O=C1c2cc(-c3ccc(OC4CNC4)cc3)ccc2CN1C(c1nc2ccccc2[nH]1)c1cc(F)ccc1O` (stereo not shown) [Compound 091, 6-[4-(azetidin-3-yloxy)phenyl]-2-[1H-benzimidazol-2-yl-(5-fluoro-2-hydroxy-phenyl)methyl]isoindolin-1-one; dihydrochloride]: the IC50 at EGFR L858R/T790M came out at 6 nM; in experiment [1] (setting [3]), 1050 nM; in experiment [1] (setting [5]), 120 nM; on EGFR L858R, 12 nM; in experiment [2] (setting [4]), 1780 nM.
